Laboratory results: ChEMBL document CHEMBL4483862, “Open-source discovery of chemical leads for next-generation chemoprotective antimalarials” (2018)

Test system: Plasmodium berghei
Experiment: Luciferase/luciferin-expressing antifolate-resistant parasites were used to infect a culture of HepG2 cells that were pre-incubated with compounds. Infected hepatocytes emit light due to the luciferase reaction. Assay results are presented as the percent inhibition of light emission compared to control. […]
Format: functional
Details: sporozoite; for IC90: read-out: LUCIFERASE INFECTION ASSAY - IC90

| SMILES | IC90 [µM] | other results |
| --- | --- | --- |
| COc1ccc(/C=C/C(=O)Nc2ccc(C34CC5CC(CC(O)(C5)C3)C4)cc2)cc1OC | 4.89 | IC50 (HEPG2TOX_HILL_SLOPE 4.85, 2.53, HEPG2TOX_R_SQUARED 0.902, 0.960, PBLUC_HILL_SLOPE 2.45, PBLUC_R_SQUARED 0.68, read-out: LUCIFERASE INFECTION ASSAY - IC50): 1.99 µM |
| CC(C)[C@H](NC(=O)c1ccccc1Cl)C(=O)Nc1nc(-c2ccccn2)cs1 | 6.36 | IC50 (HEPG2TOX_HILL_SLOPE 4.61, HEPG2TOX_R_SQUARED 0.937, PBLUC_HILL_SLOPE 2.78, PBLUC_R_SQUARED 0.749, read-out: LUCIFERASE INFECTION ASSAY - IC50): 2.89 µM |
| CC1(C(=O)NCc2ccco2)Cc2c(-c3ccccc3)ccnc2O1 (configuration not stated) | 3.99 | IC50 (HEPG2TOX_HILL_SLOPE 4.72, HEPG2TOX_R_SQUARED 0.753, PBLUC_HILL_SLOPE 10.4, PBLUC_R_SQUARED 0.157, read-out: LUCIFERASE INFECTION ASSAY - IC50): 3.23 µM |
| CS(=O)(=O)Nc1cccc(-c2cn3c(-c4cccs4)cnc3cn2)c1 | > 8.91 | IC50 (HEPG2TOX_HILL_SLOPE 4.93, HEPG2TOX_R_SQUARED 0.12, read-out: LUCIFERASE INFECTION ASSAY - IC50): > 8.91 µM |
| O=C(Nc1nccs1)c1cc(-c2ccccc2)c(C(F)(F)F)s1 | 8.66 | IC50 (HEPG2TOX_HILL_SLOPE 4.77, HEPG2TOX_R_SQUARED 0.804, PBLUC_HILL_SLOPE 25.8, PBLUC_R_SQUARED 0.401, read-out: LUCIFERASE INFECTION ASSAY - IC50): 7.96 µM |
| CC1=C(c2nc(-c3ccc(C)cc3)no2)C(c2ccco2)NC(=S)N1 (configuration not stated) | > 10 | IC50 (HEPG2TOX_HILL_SLOPE 4.63, HEPG2TOX_R_SQUARED 0.779, PBLUC_HILL_SLOPE 2.07, PBLUC_R_SQUARED 0.517, read-out: LUCIFERASE INFECTION ASSAY - IC50): 7.61 µM |
| COc1ccc(OC)c(CCNc2nc3cnc(-c4cccc(OC(F)(F)F)c4)cc3n2C)c1 | 4.72 | IC50 (HEPG2TOX_HILL_SLOPE 4.6, HEPG2TOX_R_SQUARED 0.893, PBLUC_HILL_SLOPE 3.53, PBLUC_R_SQUARED 0.694, read-out: LUCIFERASE INFECTION ASSAY - IC50): 2.53 µM |
| N#Cc1c(N=Cc2c(O)n(-c3ccc(Br)cn3)c(=O)c3ccccc23)sc2c1CCC2 | > 10 | IC50 (HEPG2TOX_HILL_SLOPE 5.03, HEPG2TOX_R_SQUARED 0.905, PBLUC_HILL_SLOPE 1.74, PBLUC_R_SQUARED 0.542, read-out: LUCIFERASE INFECTION ASSAY - IC50): 6.14 µM |
| N#C/C(=C\c1ccc(Cl)cc1Cl)c1ccc(O)cc1 | > 11.4 | IC50 (HEPG2TOX_HILL_SLOPE 4.92, HEPG2TOX_R_SQUARED 0.97, PBLUC_HILL_SLOPE 12.5, PBLUC_R_SQUARED 0.376, read-out: LUCIFERASE INFECTION ASSAY - IC50): 10.5 µM |
| Cc1c(-c2ccccc2)sc2[nH]c(SC(C(=O)c3ccccc3)c3ccccc3)nc(=O)c12 (configuration not stated) | > 10 | IC50 (HEPG2TOX_HILL_SLOPE 4.76, HEPG2TOX_R_SQUARED 0.813, PBLUC_HILL_SLOPE 2.74, PBLUC_R_SQUARED 0.111, read-out: LUCIFERASE INFECTION ASSAY - IC50): 6.76 µM |
| Cc1sc2ncnc(N/N=C/c3cn(-c4ccccc4)nc3-c3ccc4c(c3)OCCO4)c2c1C | 3.63 | IC50 (HEPG2TOX_HILL_SLOPE 4.65, HEPG2TOX_R_SQUARED 0.952, PBLUC_HILL_SLOPE 26.5, PBLUC_R_SQUARED 0.19, read-out: LUCIFERASE INFECTION ASSAY - IC50): 3.34 µM |
| Cc1oc(C(C)(C)C)cc1-c1cc(NC(=O)Nc2ccccc2C#N)n(-c2cc(C(F)(F)F)cc(C(F)(F)F)c2)n1 | 3 | IC50 (HEPG2TOX_HILL_SLOPE 5.04, HEPG2TOX_R_SQUARED 0.982, PBLUC_HILL_SLOPE 7.22, PBLUC_R_SQUARED 0.381, read-out: LUCIFERASE INFECTION ASSAY - IC50): 2.22 µM |
| COCCCNc1nccc2nc(-c3cccc(OC(F)(F)F)c3)[nH]c12 | > 10 | IC50 (HEPG2TOX_HILL_SLOPE 4.74, HEPG2TOX_R_SQUARED 0.77, PBLUC_HILL_SLOPE 3.71, PBLUC_R_SQUARED 0.224, read-out: LUCIFERASE INFECTION ASSAY - IC50): 5.72 µM |
| Cc1cc[n+](CC(=O)Nc2ccc(Br)c(C)c2)cc1 | > 10 | IC50 (HEPG2TOX_HILL_SLOPE 5.04, HEPG2TOX_R_SQUARED 0.103, PBLUC_HILL_SLOPE 18.3, PBLUC_R_SQUARED 0.0767, read-out: LUCIFERASE INFECTION ASSAY - IC50): 9.35 µM |
| COc1cc(-c2cnn3ccc(Nc4ccc(C(C)C)cc4)nc23)cc(OC)c1OC | 4.97 | IC50 (HEPG2TOX_HILL_SLOPE 4.98, HEPG2TOX_R_SQUARED 0.891, PBLUC_HILL_SLOPE 3.46, PBLUC_R_SQUARED 0.366, read-out: LUCIFERASE INFECTION ASSAY - IC50): 2.63 µM |
| C/C(=N\NC(=N)N)c1ccc(C2CCCCC2)cc1 | > 10 | IC50 (HEPG2TOX_HILL_SLOPE 4.72, HEPG2TOX_R_SQUARED 0.94, read-out: LUCIFERASE INFECTION ASSAY - IC50): > 10 µM |

| SMILES | IC90 [µM] | other results |
| --- | --- | --- |
| CC(=O)c1sc(SCCS(=O)(=O)c2ccc(Cl)cc2)c2c1CCCC2=O | > 7.69 | IC50 (HEPG2TOX_HILL_SLOPE 4.99, HEPG2TOX_R_SQUARED 0.387, PBLUC_HILL_SLOPE 14.8, PBLUC_R_SQUARED 0.11, read-out: LUCIFERASE INFECTION ASSAY - IC50): > 7.69 µM |
| O=[N+]([O-])c1ccc(SCCO)c2nonc12 | 12.8 | IC50 (HEPG2TOX_HILL_SLOPE 4.76, HEPG2TOX_R_SQUARED 0.8, PBLUC_HILL_SLOPE 15.1, PBLUC_R_SQUARED 0.318, read-out: LUCIFERASE INFECTION ASSAY - IC50): 11 µM |
| CCC(C)NC(=O)c1c(NC(=O)c2cc(F)ccc2F)nc2ccc(C)cn12 (configuration not stated) | 3.36 | IC50 (HEPG2TOX_HILL_SLOPE 5, HEPG2TOX_R_SQUARED 0.803, PBLUC_HILL_SLOPE 11.7, PBLUC_R_SQUARED 0.232, read-out: LUCIFERASE INFECTION ASSAY - IC50): 2.78 µM |
| CCOc1ccc(C=C(c2nc3ccccc3s2)c2nc3ccccc3s2)cc1OC | 4.51 | IC50 (HEPG2TOX_HILL_SLOPE 4.58, HEPG2TOX_R_SQUARED 0.874, PBLUC_HILL_SLOPE 9.07, PBLUC_R_SQUARED 0.629, read-out: LUCIFERASE INFECTION ASSAY - IC50): 3.54 µM |
| CCN1C(=O)N(CCCc2cccnc2)C(=O)C12CCN(Cc1ccc(-c3ccccc3C)cc1)CC2 | 2.68 | IC50 (HEPG2TOX_HILL_SLOPE 4.7, HEPG2TOX_R_SQUARED 0.961, PBLUC_HILL_SLOPE 9.72, PBLUC_R_SQUARED 0.497, read-out: LUCIFERASE INFECTION ASSAY - IC50): 2.14 µM |
| CC12CCC(=O)C(C(F)(F)F)=C1C=CC1C2CCC2(C)C(O)CCC12 (configuration not stated) | 3.6 | IC50 (HEPG2TOX_HILL_SLOPE 4.77, HEPG2TOX_R_SQUARED 0.78, PBLUC_HILL_SLOPE 14.8, PBLUC_R_SQUARED 0.24, read-out: LUCIFERASE INFECTION ASSAY - IC50): 3.1 µM |
| Cn1nnnc1Sc1nc(-c2ccccc2)nc2ccccc12 | 5.09 | IC50 (HEPG2TOX_HILL_SLOPE 4.8, HEPG2TOX_R_SQUARED 0.994, PBLUC_HILL_SLOPE 8.61, PBLUC_R_SQUARED 0.614, read-out: LUCIFERASE INFECTION ASSAY - IC50): 3.95 µM |
| CC(=O)c1cccc(-c2ccc3ncc(-c4cccc(O)c4)n3n2)c1 | 3.6 | IC50 (HEPG2TOX_HILL_SLOPE 4.7, HEPG2TOX_R_SQUARED 0.977, PBLUC_HILL_SLOPE 30, PBLUC_R_SQUARED 0.547, read-out: LUCIFERASE INFECTION ASSAY - IC50): 3.34 µM |
| COc1cc(OC)cc(-c2cnc3cnc(-c4ccc(N5CCN(C)CC5)nc4)cn23)c1 | > 7.67 | IC50 (HEPG2TOX_HILL_SLOPE 4.69, HEPG2TOX_R_SQUARED 0.215, PBLUC_HILL_SLOPE 12, PBLUC_R_SQUARED 0.625, read-out: LUCIFERASE INFECTION ASSAY - IC50): 7.27 µM |
| CCS(=O)(=O)c1ncc(Cl)c(C(=O)Nc2cc(Cl)cc(Cl)c2)n1 | 3.19 | IC50 (HEPG2TOX_HILL_SLOPE 4.63, HEPG2TOX_R_SQUARED 0.595, PBLUC_HILL_SLOPE 15.4, PBLUC_R_SQUARED 0.531, read-out: LUCIFERASE INFECTION ASSAY - IC50): 2.76 µM |
| COc1cc(/C=C/C(=O)c2cccc(Cl)c2)cc(Br)c1OCC(=O)N(C)C | 4.57 | IC50 (HEPG2TOX_HILL_SLOPE 4.93, 12.4, HEPG2TOX_R_SQUARED 0.976, 0.384, PBLUC_HILL_SLOPE 9.73, 46.2, PBLUC_R_SQUARED 0.151, 0.563, read-out: LUCIFERASE INFECTION ASSAY - IC50): 3.93 µM |
| O=C(c1c[nH]c(-c2ccnc(N3CCCC3)c2)c1)c1cc(Cl)ccc1O | 1.6 | IC50 (HEPG2TOX_HILL_SLOPE 4.74, 0.999, HEPG2TOX_R_SQUARED 0.925, 0.982, PBLUC_HILL_SLOPE 1.70, 2.23, PBLUC_R_SQUARED 0.381, 0.812, read-out: LUCIFERASE INFECTION ASSAY - IC50): 0.598 µM |
| Cc1ccc(C(C)NC(=O)Cc2c(C)[nH]c(-c3ccccn3)nc2=O)cc1 (configuration not stated) | > 10 | IC50 (HEPG2TOX_HILL_SLOPE 4.86, HEPG2TOX_R_SQUARED 0.498, PBLUC_HILL_SLOPE 12, PBLUC_R_SQUARED 0.399, read-out: LUCIFERASE INFECTION ASSAY - IC50): 9.36 µM |
| CCCOc1ccc2cc(C(=O)c3c(C)[nH]c(C)c3C(=O)OCC)oc2c1 | > 10 | IC50 (HEPG2TOX_HILL_SLOPE 4.85, HEPG2TOX_R_SQUARED 0.69, PBLUC_HILL_SLOPE 11.9, PBLUC_R_SQUARED 0.276, read-out: LUCIFERASE INFECTION ASSAY - IC50): 9.4 µM |
| O=S(=O)(c1ccc2ccccc2c1)N1CCCC1c1ccncc1 (configuration not stated) | > 10 | IC50 (HEPG2TOX_HILL_SLOPE 4.75, HEPG2TOX_R_SQUARED 0.828, PBLUC_HILL_SLOPE 11, PBLUC_R_SQUARED 0.196, read-out: LUCIFERASE INFECTION ASSAY - IC50): 9.32 µM |
